Measurements as given in patent US7332279B2 (Glycozym APS, priority 1999, dated 2008).
Where two headings read alike, the source gives them in different places.

Legend:
[1] = target: T1, β3Gal-T5 (Homo sapiens, UniProt Q9Y2C3, M85T); test: Galactosyltransferase assay, partially purified secreted recombinant β3Gal-T5, saccharide acceptors; assay type: biochemical; settings: for β3Gal-T5 activity, substrate concentration 1 mM: acceptor 1 mM; for β3Gal-T5 activity, substrate concentration 5 mM: acceptor 5 mM; for donor substrate utilisation by β3Gal-T5: with the acceptor substrates tested (data not shown)
T1 construct: designed to exclude the hydrophobic transmembrane segment and to encode amino acid residues 25-310; secretion signal of vector pAcGP67B (gp67); made in house; host or cells: baculovirus; Sf9 cells (media) and High Five cells (serum-free medium, partially purified)
T1 sequence (Q9Y2C3 25-310 M85T): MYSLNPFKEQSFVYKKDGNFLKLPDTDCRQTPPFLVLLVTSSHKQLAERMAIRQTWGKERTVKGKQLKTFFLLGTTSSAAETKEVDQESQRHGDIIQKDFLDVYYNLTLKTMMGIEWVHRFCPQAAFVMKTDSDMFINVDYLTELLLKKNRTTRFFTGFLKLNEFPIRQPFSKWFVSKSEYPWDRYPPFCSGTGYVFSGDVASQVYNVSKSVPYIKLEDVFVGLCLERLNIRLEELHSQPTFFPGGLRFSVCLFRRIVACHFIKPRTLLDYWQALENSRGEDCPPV
Description: PCR product was cloned into the BamHI site of pAcGP67B (Pharmingen). […] This PCR product was cloned into the BamHI site of pVL1193 (Pharmingen). Both soluble and full length constructs were fully sequenced to confirm fidelity. Plasmids […]5-full were co-transfected with Baculo-GoldTM DNA (Pharmingen) as described previously (Bennett, […]. and Clausen, H. cDNA cloning and expression of a novel human UDP-N-acetyl-alpha-D-galactosamine. Polypeptide N-acetyl-galactosaminyl-transferase, GalNAc-T3. J. Biol. Chem. 271:17006-17012, 1996). Recombinant Baculo-virus were obtained after two successive amplifications in Sf9 cells grown in serum-containing medium, and titers of virus were estimated by titration in 24-well plates with monitoring of enzyme activities. […] J. Biol. […] J. Biol. […] Polypeptide N-acetyl-galactosaminyl-transferase, GalNAc-T3. J. Biol. Chem. 271:17006-17012, 1996). For large scale expression amplified virus was used to infect High FiveTM cells grown in serum-free media (Invitrogen) in upright roller bottles shaking at 140 rpm and 27° C. The kinetic properties were determined with partially purified, secreted forms of the enzymes. Semipurification of enzymes from serum-free medium of infected High-FiveTM cells was performed by sequential Amberlite, DEAE-Sephacel and 5-Sepharose chromatography as described previously ([…]., et al. […] J. Biol. Chem. 272:23503-23514, 1997). Comparisons of enzymes were performed relatively to the activity obtained with βGlcNAc-Bz1 (Tables II and III). Full length enzymes were assayed with 1% Triton CF54 homogenates of washed cells. […] Reaction products were quantified by Dowex-1 chromatography. […] P. and Clausen, H. […] J. Biol. Chem. 273:29295-29305, 1998). The transfer of Gal was evaluated after acid precipitation by filtration through Whatman GF/C glass fibre filters. […] Assays with glycolipid acceptors were conducted as previously described (Holmes, E. H. […] Arch Biochem Biophys 270:630-646, 1989) in reaction mixtures containing 2.5 μmol HEPES buffer, pH 7.2, μmol MnCl2, 100 μg taurodeoxycholate or Triton CF-54, 20 μg acceptor glycolipid, 15 nmol UDP-[^14C]-galactose (13,000 cpm/nmol) and enzyme in a total volume of 100 μl. Conditions for incubation and product isolation were as previously described (Id.).

[2] = target: T1, β3Gal-T5; test: Galactosyltransferase assay with glycolipid acceptors, β3Gal-T5; assay type: biochemical; settings: for β3Gal-T5 activity with glycolipid acceptor, Triton CF-54: 100 μg Triton CF-54/100 μl; for β3Gal-T5 activity with glycolipid acceptor, Triton CF-54 / β3Gal-T5 activity with glycolipid acceptor, TDOC: 20 μg glycolipid; for β3Gal-T5 activity with glycolipid acceptor, TDOC: 100 μg taurodeoxycholate/100 μl
Method: The kinetic properties were determined with partially purified, secreted forms of the enzymes. Semipurification of enzymes from serum-free medium of infected High-Five™ cells was performed by sequential Amberlite, DEAE-Sephacel and 5-Sepharose chromatography as described previously (Wandall, H. H., Hassan, H., Mirgorodskaya, E., et al. Substrate specificities of three. members of the human UDP-N-acetyl-alpha-D-galactosamine:Polypeptide Nacetylgalactosaminyltransferase family, GalNAc-T1, -T2, and -T3. J. Biol. Chem. 272:23503-23514, 1997). Comparisons of enzymes were performed relatively to the activity obtained with βGlcNAc-Bz1 (Tables II and III). Full length enzymes were assayed with 1% Triton CF54 homogenates of washed cells. Enzyme assays were performed in 50 μl total reaction mixtures containing 25 mM Cacodylate (pH 7.5), 10 mM MnCl2, 0.25% Triton X-100, 100 μM UDP-[^14C]-Gal (2,600 cpm/nmol) (Amersham), and varying concentrations of acceptor substrates (Sigma) (see Table I for structures). Reaction products were quantified by Dowex-1 chromatography. […] The transfer of Gal was evaluated after acid precipitation by filtration through Whatman GF/C glass fibre filters. […] Assays with glycolipid acceptors were conducted as previously described (Holmes, E. H. Characterization and membrane organization of beta 1-3- and beta 1-4-galactosyltransferases from human colonic adenocarcinoma cell lines Cob 205 and SW403: basis for preferential synthesis of type 1 chain lacto-series carbohydrate structures. Arch Biochem Biophys 270:630-646, 1989) in reaction mixtures containing 2.5 μmol HEPES buffer, pH 7.2, μmol MnCl2, 100 μg taurodeoxycholate or Triton CF-54, 20 μg acceptor glycolipid, 15 nmol UDP-[^14C]-galactose (13,000 cpm/nmol) and enzyme in a total volume of 100 μl. Conditions for incubation and product isolation were as previously described (Id.).

| Compound | β3Gal-T5 activity, substrate concentration 1 mM [1] [nmol/min/mL] | β3Gal-T5 activity, substrate concentration 5 mM [1] [nmol/min/mL] | other results |
| --- | --- | --- | --- |
| CC(=O)N[C@@H]1[C@@H](O)[C@H](O)[C@@H](CO)O[C@@H]1O [D-GIcNAc] | 0.5 | 1.2 |  |
| CC(=O)N[C@H]1[C@@H](OP(=O)(O)OP(=O)(O)OC[C@H]2O[C@@H](n3ccc(=O)[nH]c3=O)[C@H](O)[C@@H]2O)O[C@H](CO)[C@H](O)[C@@H]1O [UDP-GalNAc] |  |  | donor substrate utilisation by β3Gal-T5 [1]: did not utilize |
| CC(=O)N[C@H]1[C@@H](OP(=O)(O)OP(=O)(O)OC[C@H]2O[C@@H](n3ccc(=O)[nH]c3=O)[C@H](O)[C@@H]2O)O[C@H](CO)[C@@H](O)[C@@H]1O [UDPGlcNAc] |  |  | donor substrate utilisation by β3Gal-T5 [1]: did not utilize |
| O=[N+]([O-])c1ccccc1O[C@H]1O[C@H](CO)[C@H](O)[C@H](O)[C@H]1O [α-D-Gal-1-o-Nph] | 0.0 | 0.0 |  |
| CC(=O)N[C@H]1[C@@H](OCc2ccccc2)O[C@H](CO)[C@H](O)[C@@H]1O [α-D-GalNAc-Bzl] | 0.0 | 0.0 |  |
| CC(=O)N[C@H]1[C@@H](OCc2ccccc2)O[C@H](CO)[C@@H](O)[C@@H]1O [α-D-GlcNAc-Bzl] | 0.0 | 0.0 |  |
| O=[N+]([O-])c1ccccc1O[C@@H]1O[C@H](CO)[C@H](O)[C@H](O)[C@H]1O [β-D-Gal-1-o-Nph] | 0.0 | 0.0 |  |
| CC(=O)N[C@H]1[C@H](Oc2ccc3c(C)cc(=O)oc3c2)O[C@H](CO)[C@H](O)[C@@H]1O [β-D-GalNAc-Me-umb] | 0.0 | 0.0 |  |
| Cc1cc(=O)oc2cc(O[C@@H]3O[C@H](CO)[C@@H](O)[C@H](O)[C@H]3O)ccc12 [β-D-Glc-Me-umb] | 0.0 | 0.0 |  |
| CC(=O)N[C@H]1[C@H](Oc2ccc([N+](=O)[O-])cc2)O[C@H](CO)[C@@H](O)[C@@H]1O [β-D-GlcNAc-1-p-Nph] | 2.1 | 6.9 |  |
| CC(=O)N[C@@H]1[C@@H](O)[C@H](O)[C@@H](CO)O[C@H]1Sc1ccc([N+](=O)[O-])cc1 [β-D-GlcNAc-1-thio-p-Nph] | 1.1 | 3.4 |  |
| CC(=O)NC1C(OC2C(OCC3OC(O)C(O)C(OC4OC(CO)C(O)C(O)C4OC4OC(CO)C(O)C(O)C4NC(C)=O)C3O)OC(CO)C(O)C2O)OC(CO)C(O)C1O [β-D-GlcNAc-(1–2)-α-D-Man-(1–3)-[β-D-GlcNAc-(1–2)-α-D-Man-(1–6)-]D-Man] | 0.0 | 0.0 |  |
| CC(=O)NC1C(OC2C(O)OC(CO)C(O)C2O)OC(CO)C(O)C1O [β-D-GlcNAc-(1–2)-α-D-Man] | 0.0 | 3.0 |  |
| CO[C@@H]1O[C@H](CO)[C@H](O)[C@H](O[C@@H]2O[C@H](CO)[C@@H](O)[C@H](O)[C@H]2NC(C)=O)[C@H]1O [β-D-GlcNAc-(1–3)-β-D-Gal-1-Me] | 27.4 | 87.4 | Vmax ([1]; Table V): 972.9 pmol/min; Km ([1]; Table V, read-out: Km): 1800 µM; Km ([1]; acceptor substrate, read-out: apparent Km of β3Gal-T5): 1800 µM |
| COC1OC(COC2OC(CO)C(O)C(O)C2NC(C)=O)C(O)C(O)C1O [β-D-GlcNAc-(1–6)-α-D-Man-1-Me] | 4.0 | 13.0 |  |
| CC(=O)N[C@H]1[C@H](Oc2ccc3c(C)cc(=O)oc3c2)O[C@H](CO)[C@@H](O)[C@@H]1O [β-D-GlcNAc-Me-umb] | 2.6 | 7.5 |  |
| Cc1cc(=O)oc2cc(O[C@@H]3OC[C@@H](O[C@@H]4O[C@H](CO)[C@H](O)[C@H](O)[C@H]4O)[C@H](O)[C@H]3O)ccc12 [β-Gal-(1–4)-β-D-Xyl-1-Me-umb] | 0.0 | 0.0 |  |
| GalNAcβ1-3Galα1-4Galβ1-4Glcβ1-Cer [Gβ4] |  |  | β3Gal-T5 activity with glycolipid acceptor, Triton CF-54 [2]: 0.09 µmol/h/mg; β3Gal-T5 activity with glycolipid acceptor, TDOC [2]: 0.6 µmol/h/mg |
| GalNAcβ1-4Galβ1-4Glcβ1-Cer [Gg3] |  |  | β3Gal-T5 activity with glycolipid acceptor, Triton CF-54 [2]: 0.005 µmol/h/mg; β3Gal-T5 activity with glycolipid acceptor, TDOC [2]: 0.09 µmol/h/mg |
| GlcNAcβ1-3Galβ1-4G1cNAcβ1-3Galβ1-4Glcβ1-Cer [nLC5] |  |  | activity, fold lower than with Lc3 [2]: ~3 fold; β3Gal-T5 activity with glycolipid acceptor, Triton CF-54 [2]: 0.4 µmol/h/mg; β3Gal-T5 activity with glycolipid acceptor, TDOC [2]: 1.6 µmol/h/mg |
| Glcβ1-Cer [GlcCer] |  |  | β3Gal-T5 activity with glycolipid acceptor, TDOC [2]: 0.04 µmol/h/mg |
